Results as given in PubChem BioAssay AID192 (DTP/NCI, 2004).
Where “and” joins values, the source holds several entries; their conditions need not be identical. Equal entries are not always repeated. Inconclusive results and toxic doses are left out. How the source made its calls: active means survival T/C of 150% or more; inactive means T/C below 125% in these data. Numbered stars: 1 amine (or outer) side, 2 acyl side, 3 side chain; on linkers, the order of the positions; unused ones are H or OH. Bridge positions count the residues as written; N and C are the ends. Square brackets hold non-standard residues; d marks the D form. Peptide text beside a SMILES is read from it. I, II: the chains in the order shown. ξ: configuration not given here. Actinocin(9to1) = Cc1c2oc3c(C)ccc(C(=O)[*:1])c3nc-2c(C(=O)[*:2])c(N)c1=O; ξPro(4ξ-Me) = CC1CNC(C(=O)O)C1; NMeV = CN[CH](C(=O)O)C(C)C; Sar = CNCC(=O)O

Tested on: BDF1 mice, B16 melanoma ip, median survival T/C
Experiment: NCI In Vivo Anticancer Drug Screen. Data for tumor model B16 Melanoma (intraperitoneal) in B6D2F1 (BDF1) mice
Details: endpoint: median survival time, higher = longer survival
Procedure, shortened: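 Vehicle-treated animals serve as the reference (C); treated animals (T) are scored for survival or tumor size after tumor transplantation.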

[1] = dose: 100.0 mg/kg/injection, schedule: Q01DX009 (ip), vehicle: saline with Tween-80
[2] = dose: 400.0 mg/kg/injection, schedule: Q01DX009 (ip), vehicle: saline with Tween-80
[3] = dose: 6.25 mg/kg/injection, schedule: Q01DX009 (ip), vehicle: saline with Tween-80
[4] = dose: 12.5 mg/kg/injection, schedule: Q01DX009 (ip), vehicle: saline with Tween-80
[5] = dose: 25.0 mg/kg/injection, schedule: Q01DX009 (ip), vehicle: saline with Tween-80
[6] = dose: 100.0 mg/kg/injection, schedule: Q01DX009 (ip), vehicle: saline
[7] = dose: 200.0 mg/kg/injection, schedule: Q01DX009 (ip), vehicle: saline
[8] = dose: 50.0 mg/kg/injection, schedule: Q01DX009 (ip), vehicle: saline with Tween-80
[9] = dose: 200.0 mg/kg/injection, schedule: Q01DX009 (ip), vehicle: saline with Tween-80
[10] = dose: 100.0 mg/kg/injection, schedule: Q01DX009 (ip), vehicle: Klucel (hydroxypropylcellulose) (HPC)
[11] = dose: 200.0 mg/kg/injection, schedule: Q01DX009 (ip), vehicle: Klucel (hydroxypropylcellulose) (HPC)
[12] = dose: 400.0 mg/kg/injection, schedule: Q01DX009 (ip), vehicle: Klucel (hydroxypropylcellulose) (HPC)
[13] = dose: 50.0 mg/kg/injection, schedule: Q04DX003 (ip), vehicle: Klucel (hydroxypropylcellulose) (HPC)
[14] = dose: 200.0 mg/kg/injection, schedule: Q04DX003 (ip), vehicle: Klucel (hydroxypropylcellulose) (HPC)
[15] = dose: 12.5 mg/kg/injection, schedule: Q01DX009 (ip), vehicle: saline
[16] = dose: 25.0 mg/kg/injection, schedule: Q01DX009 (ip), vehicle: saline
[17] = dose: 50.0 mg/kg/injection, schedule: Q01DX009 (ip), vehicle: saline
[18] = dose: 50.0 mg/kg/injection, schedule: Q01DX009 (ip), vehicle: Klucel (hydroxypropylcellulose) (HPC)

Measured: T/C

COc1cc(NC(=O)CN(CCCl)CCCl)cc(OC)c1OC
active: [1] 170 % of control | [2] 161 % of control

CC(=O)[O][Pb]([CH2]CC(C)C)([CH2]CC(C)C)[CH2]CC(C)C
inactive: dose: 0.75 mg/kg/injection, schedule: Q01DX009 (ip), vehicle: Klucel (hydroxypropylcellulose) (HPC) 100 % of control | dose: 1.5 mg/kg/injection, schedule: Q01DX009 (ip), vehicle: Klucel (hydroxypropylcellulose) (HPC) 86 % of control

CC(=O)CC(C)=O.CC(=O)CC(C)=O.[Co]
inactive: [3] 97 % of control | [4] 102 % of control | [5] 91 % of control

Nc1nc(N)n2c(N)nnc2n1
inactive: [6] 87 % of control | [7] 88 % of control

N=N/C(=C\c1c(O)[nH]c2ccccc12)c1ccccc1
inactive: [8] 98 % of control | [1] 105 % of control | [9] 98 % of control | [2] 89 % of control

Cc1c2oc3c(C)ccc(C(=O)NC4C(=O)NC(C(C)C)C(=O)N5CC(C)CC5C(=O)N(C)CC(=O)N(C)C(C(C)C)C(=O)OC4C)c3nc-2c(C(=O)NC2C(=O)NC(C(C)C)C(=O)N3CC(C)CC3C(=O)N(C)CC(=O)N(C)C(C(C)C)C(=O)OC2C)c(N)c1=O (configuration not stated) (I: TV[ξPro(4ξ-Me)][Sar][NMeV] / II: TV[ξPro(4ξ-Me)][Sar][NMeV]; ester I:1-I:C, II:1-II:C; linker I:N-II:N via Actinocin(9to1); configuration not given here)
active: dose: 3.24 mg/kg/injection, schedule: Q04DX003 (ip), vehicle: saline + alcohol 163 % of control | dose: 5.4 mg/kg/injection, schedule: Q04DX003 (ip), vehicle: saline + alcohol 153 % of control | dose: 9.0 mg/kg/injection, schedule: Q04DX003 (ip), vehicle: saline + alcohol 207 % of control | dose: 15.0 mg/kg/injection, schedule: Q04DX003 (ip), vehicle: saline + alcohol 188 % of control
inactive: dose: 3.6 mg/kg/injection, schedule: Q04DX003 (ip), vehicle: saline + alcohol 123 % of control | dose: 259.0 micrograms/kg/injection, schedule: Q01DX009 (ip), vehicle: saline + alcohol 114 % of control | dose: 432.0 micrograms/kg/injection, schedule: Q01DX009 (ip), vehicle: saline + alcohol 122 % of control | dose: 720.0 micrograms/kg/injection, schedule: Q01DX009 (ip), vehicle: saline + alcohol 118 % of control | dose: 1200.0 micrograms/kg/injection, schedule: Q01DX009 (ip), vehicle: saline + alcohol 123 % of control

Cc1ccc(NC(=O)c2ccccc2)cc1Cl
inactive: [10] 101 % of control | [11] 103 % of control | [12] 101 % of control

Cc1ccc(C)c(NC(=O)Nc2ccccc2C)c1
inactive: [13] 87 % of control | [14] 87 % of control

COC(=O)CC(N)C(=O)O (configuration not stated)
inactive: [15] 101 % of control | [16] 103 % of control | [17] 113 % of control | [6] 104 % of control | [7] 89 % of control

Nc1nc(SCc2ccccc2Cl)c2ncn(C3OC(CO)C(O)C3O)c2n1 (configuration not stated)
inactive: [18] 89 % of control | [8] 88 % of control

O=C(Nc1ccc(C2=NCCN2)cc1)c1ccc(C(=O)Nc2ccc(C3=NCCN3)cc2)c(Cl)c1
inactive: dose: 3.12 mg/kg/injection, schedule: Q01DX009 (ip), vehicle: saline with Tween-80 93 % of control | [3] 104 % of control | dose: 8.0 mg/kg/injection, schedule: Q01DX009 (ip), vehicle: saline with Tween-80 104 % of control | [4] 108 % of control | dose: 16.0 mg/kg/injection, schedule: Q01DX009 (ip), vehicle: saline with Tween-80 102 % of control | [5] 105 % of control

COc1cc(C(=O)OCCCN2CCOCC2)cc(OC)c1OC
inactive: dose: 0.78 mg/kg/injection, schedule: Q01DX009 (ip), vehicle: saline 105 % of control | dose: 1.56 mg/kg/injection, schedule: Q01DX009 (ip), vehicle: saline 110 % of control | dose: 3.12 mg/kg/injection, schedule: Q01DX009 (ip), vehicle: saline 110 % of control | dose: 6.25 mg/kg/injection, schedule: Q01DX009 (ip), vehicle: saline 105 % of control | [15] 110 % of control | [7] 89 % of control

CCc1ccccc1NC(=O)c1cccc(C(=O)Nc2ccccc2CC)c1
inactive: [18] 102 % of control | [10] 105 % of control | [11] 102 % of control

CC[C@@]1(O)C(=O)OCc2c1cc1n(c2=O)Cc2cc3ccccc3nc2-1
active: dose: 0.39 mg/kg/injection, schedule: Q01DX009 (ip), vehicle: other 151 % of control | dose: 0.79 mg/kg/injection, schedule: Q01DX009 (ip), vehicle: other 189 % of control

Cc1ccc(NC(=O)Nc2cccc(C(F)(F)F)c2)cc1NC(=O)Nc1cccc(C(F)(F)F)c1
inactive: [5] 103 % of control | [8] 91 % of control | [1] 96 % of control

CNCCOc1ccc(Cl)cc1
inactive: [5] 103 % of control | [8] 98 % of control | [1] 101 % of control

CCc1ccc(NC2=NCCO2)cc1
inactive: [4] 102 % of control | [5] 97 % of control | [8] 91 % of control

CCCCCCC(=O)CC(C)C
inactive: [10] 93 % of control | [11] 90 % of control | [12] 86 % of control

CN(C)N=Nc1cn[nH]c1C(N)=O
inactive: dose: 12.5 mg/kg/injection, schedule: Q01DX009 (ip), vehicle: Klucel (hydroxypropylcellulose) (HPC) 110 % of control | dose: 25.0 mg/kg/injection, schedule: Q01DX009 (ip), vehicle: Klucel (hydroxypropylcellulose) (HPC) 111 % of control | [18] 100 % of control | [10] 98 % of control | [11] 96 % of control

O=c1c2ccccc2sc2ccc(Br)cc12
inactive: [10] 110 % of control | [11] 100 % of control | [12] 102 % of control

CCNCCNC
inactive: [16] 109 % of control | [17] 98 % of control | [6] 86 % of control

COc1ccccc1Oc1ccc(N=Cc2ccc(C)cc2)cc1
inactive: [18] 102 % of control | [10] 86 % of control and 102 % of control | [11] 100 % of control and 111 % of control | [12] 86 % of control

Cc1cc(C(C)C)cc(C(C)C)c1
inactive: dose: 6.25 mg/kg/injection, schedule: Q04DX003 (ip), vehicle: Klucel (hydroxypropylcellulose) (HPC) 102 % of control | dose: 12.5 mg/kg/injection, schedule: Q04DX003 (ip), vehicle: Klucel (hydroxypropylcellulose) (HPC) 108 % of control | dose: 25.0 mg/kg/injection, schedule: Q04DX003 (ip), vehicle: Klucel (hydroxypropylcellulose) (HPC) 105 % of control | [13] 88 % of control | dose: 100.0 mg/kg/injection, schedule: Q04DX003 (ip), vehicle: Klucel (hydroxypropylcellulose) (HPC) 98 % of control | [14] 97 % of control

[Cl][Pt+2][Cl].[NH-]CC(=O)O.[NH-]CC(=O)O
inactive: [5] 97 % of control | [8] 92 % of control

O=C(CC(O)(C(F)(F)Cl)C(F)(F)Cl)c1ccco1
inactive: [5] 100 % of control | [8] 100 % of control | [1] 105 % of control

CCCC(C)C(C(=O)O)c1ccccc1 (configuration not stated)
inactive: [1] 110 % of control | [9] 106 % of control | dose: 300.0 mg/kg/injection, schedule: Q01DX009 (ip), vehicle: saline with Tween-80 91 % of control
